Assays:
[1] = target: T1, CK1α (Homo sapiens, UniProt P48729+Q96SW2); assay: Western blot, degradation of substrate protein in hPBMCs; assay type: cell-based; settings: Western blot, 24 hours of compound treatment, compounds tested at 50 nM and 500 nM (concentration for the table not stated)
T1 construct: effects of the compounds of the present disclosure on the expression of target proteins in cells; endogenous in cells; host or cells: human PBMCs (Milecell Biotechnologies)

[2] = target: T2, IKZF1 (Homo sapiens, UniProt Q13422+Q96SW2); assay: as above; assay type: cell-based; settings: Western blot, 24 hours of compound treatment, compounds tested at 50 nM and 500 nM (concentration for the table not stated)
T2 construct: effects of the compounds of the present disclosure on the expression of target proteins in cells; endogenous in cells; host or cells: human PBMCs (Milecell Biotechnologies)
T2 sequence (Q13422 whole entry): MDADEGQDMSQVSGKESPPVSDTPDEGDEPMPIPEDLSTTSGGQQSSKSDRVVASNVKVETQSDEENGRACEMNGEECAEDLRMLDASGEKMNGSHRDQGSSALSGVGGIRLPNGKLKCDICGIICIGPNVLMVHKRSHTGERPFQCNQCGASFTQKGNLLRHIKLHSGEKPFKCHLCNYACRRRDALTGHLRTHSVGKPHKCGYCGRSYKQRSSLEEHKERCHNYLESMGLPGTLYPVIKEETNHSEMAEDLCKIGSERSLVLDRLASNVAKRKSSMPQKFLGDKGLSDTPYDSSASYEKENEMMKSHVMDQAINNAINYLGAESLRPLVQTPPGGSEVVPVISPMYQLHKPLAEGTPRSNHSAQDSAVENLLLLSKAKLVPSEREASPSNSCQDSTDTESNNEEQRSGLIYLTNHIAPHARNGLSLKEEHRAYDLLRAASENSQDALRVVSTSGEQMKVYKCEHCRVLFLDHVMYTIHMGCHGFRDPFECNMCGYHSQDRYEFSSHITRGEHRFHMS
T2 sequence (Q96SW2 whole entry): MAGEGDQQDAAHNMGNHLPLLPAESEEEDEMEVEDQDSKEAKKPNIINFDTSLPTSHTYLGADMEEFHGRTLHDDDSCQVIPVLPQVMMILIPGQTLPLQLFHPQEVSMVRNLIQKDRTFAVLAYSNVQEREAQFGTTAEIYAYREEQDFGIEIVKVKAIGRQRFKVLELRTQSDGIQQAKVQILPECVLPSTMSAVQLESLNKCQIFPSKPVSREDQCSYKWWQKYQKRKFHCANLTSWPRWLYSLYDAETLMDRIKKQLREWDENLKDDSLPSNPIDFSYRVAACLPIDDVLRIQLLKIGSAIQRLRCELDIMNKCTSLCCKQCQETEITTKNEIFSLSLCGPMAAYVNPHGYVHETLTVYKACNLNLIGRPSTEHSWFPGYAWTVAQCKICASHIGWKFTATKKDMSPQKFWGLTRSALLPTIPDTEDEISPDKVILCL
T2 sequence (Q16531 whole entry partner): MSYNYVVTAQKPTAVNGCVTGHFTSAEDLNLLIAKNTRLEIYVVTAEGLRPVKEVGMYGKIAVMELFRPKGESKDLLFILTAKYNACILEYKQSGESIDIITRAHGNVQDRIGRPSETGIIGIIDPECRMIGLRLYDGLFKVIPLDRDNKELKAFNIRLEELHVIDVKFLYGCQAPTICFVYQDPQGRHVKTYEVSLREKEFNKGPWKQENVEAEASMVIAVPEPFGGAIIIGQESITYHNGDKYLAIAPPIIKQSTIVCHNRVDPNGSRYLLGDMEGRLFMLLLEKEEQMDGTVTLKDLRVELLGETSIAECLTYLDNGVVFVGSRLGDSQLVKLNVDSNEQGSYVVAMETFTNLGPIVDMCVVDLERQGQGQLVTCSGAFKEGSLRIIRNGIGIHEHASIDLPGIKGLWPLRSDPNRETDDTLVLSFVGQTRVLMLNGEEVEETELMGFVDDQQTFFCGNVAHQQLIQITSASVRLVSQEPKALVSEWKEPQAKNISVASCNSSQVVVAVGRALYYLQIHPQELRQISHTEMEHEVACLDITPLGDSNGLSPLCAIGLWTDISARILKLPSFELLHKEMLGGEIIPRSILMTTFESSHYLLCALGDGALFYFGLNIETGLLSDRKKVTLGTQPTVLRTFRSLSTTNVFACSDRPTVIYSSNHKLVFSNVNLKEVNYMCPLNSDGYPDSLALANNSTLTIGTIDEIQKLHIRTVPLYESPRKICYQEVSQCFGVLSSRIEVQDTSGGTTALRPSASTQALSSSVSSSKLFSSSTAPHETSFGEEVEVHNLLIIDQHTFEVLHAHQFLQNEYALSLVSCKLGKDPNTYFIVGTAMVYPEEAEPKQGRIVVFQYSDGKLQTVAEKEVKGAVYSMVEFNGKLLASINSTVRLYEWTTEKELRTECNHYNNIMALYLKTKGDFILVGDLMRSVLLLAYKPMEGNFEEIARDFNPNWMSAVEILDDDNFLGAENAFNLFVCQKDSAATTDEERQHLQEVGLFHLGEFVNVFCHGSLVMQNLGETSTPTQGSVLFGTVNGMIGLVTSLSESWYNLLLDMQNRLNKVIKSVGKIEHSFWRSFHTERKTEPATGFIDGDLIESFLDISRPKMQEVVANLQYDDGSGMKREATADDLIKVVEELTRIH

[3] = target: T3, IKZF2 (Homo sapiens, UniProt Q96SW2+Q9UKS7); assay: as above; assay type: cell-based; settings: Western blot, 24 hours of compound treatment, compounds tested at 50 nM and 500 nM (concentration for the table not stated)
T3 construct: effects of the compounds of the present disclosure on the expression of target proteins in cells; endogenous in cells; host or cells: human PBMCs (Milecell Biotechnologies)
T3 sequence (Q9UKS7 whole entry): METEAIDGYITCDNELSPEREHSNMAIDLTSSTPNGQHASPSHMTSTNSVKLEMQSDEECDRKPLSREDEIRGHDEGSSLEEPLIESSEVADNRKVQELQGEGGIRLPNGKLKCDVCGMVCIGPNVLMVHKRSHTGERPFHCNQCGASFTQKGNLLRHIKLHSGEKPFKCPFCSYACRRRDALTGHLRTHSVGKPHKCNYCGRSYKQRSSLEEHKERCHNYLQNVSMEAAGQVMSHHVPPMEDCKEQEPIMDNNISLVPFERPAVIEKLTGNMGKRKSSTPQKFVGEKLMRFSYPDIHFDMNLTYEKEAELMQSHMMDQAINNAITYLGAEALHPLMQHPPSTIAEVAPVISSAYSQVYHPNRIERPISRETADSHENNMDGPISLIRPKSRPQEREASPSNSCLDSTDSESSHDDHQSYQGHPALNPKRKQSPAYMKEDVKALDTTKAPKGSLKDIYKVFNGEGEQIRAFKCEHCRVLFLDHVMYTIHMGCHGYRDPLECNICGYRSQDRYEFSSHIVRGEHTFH
T3 sequence (Q96SW2 whole entry): as the sequence (Q96SW2 whole entry) above
T3 sequence (Q16531 whole entry partner): as the sequence (Q16531 whole entry partner) above

[4] = target: T4, IKZF3 (Homo sapiens, UniProt Q96SW2+Q9UKT9); assay: as above; assay type: cell-based; settings: Western blot, 24 hours of compound treatment, compounds tested at 50 nM and 500 nM (concentration for the table not stated)
T4 construct: effects of the compounds of the present disclosure on the expression of target proteins in cells; endogenous in cells; host or cells: human PBMCs (Milecell Biotechnologies)
T4 sequence (Q9UKT9 whole entry): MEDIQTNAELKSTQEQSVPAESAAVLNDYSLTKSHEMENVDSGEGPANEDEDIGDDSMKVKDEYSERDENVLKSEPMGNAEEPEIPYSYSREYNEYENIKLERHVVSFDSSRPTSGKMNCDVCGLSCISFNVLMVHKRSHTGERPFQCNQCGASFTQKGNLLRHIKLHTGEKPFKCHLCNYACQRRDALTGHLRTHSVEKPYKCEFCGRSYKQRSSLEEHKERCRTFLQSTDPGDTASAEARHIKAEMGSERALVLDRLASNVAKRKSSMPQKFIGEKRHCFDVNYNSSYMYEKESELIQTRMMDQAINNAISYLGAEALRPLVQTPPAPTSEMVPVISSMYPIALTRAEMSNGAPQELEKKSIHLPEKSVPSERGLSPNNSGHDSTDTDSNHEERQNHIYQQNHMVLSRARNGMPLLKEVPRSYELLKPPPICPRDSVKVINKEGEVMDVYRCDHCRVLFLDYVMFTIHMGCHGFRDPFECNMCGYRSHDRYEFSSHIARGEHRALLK
T4 sequence (Q96SW2 whole entry): as the sequence (Q96SW2 whole entry) above
T4 sequence (Q16531 whole entry partner): as the sequence (Q16531 whole entry partner) above

[5] = target: T5, WEE1 (Homo sapiens, UniProt P30291+Q96SW2); assay: as above; assay type: cell-based; settings: Western blot, 24 hours of compound treatment, compounds tested at 50 nM and 500 nM (concentration for the table not stated)
T5 construct: effects of the compounds of the present disclosure on the expression of target proteins in cells; endogenous in cells; host or cells: human PBMCs (Milecell Biotechnologies)
T5 sequence (P30291 whole entry): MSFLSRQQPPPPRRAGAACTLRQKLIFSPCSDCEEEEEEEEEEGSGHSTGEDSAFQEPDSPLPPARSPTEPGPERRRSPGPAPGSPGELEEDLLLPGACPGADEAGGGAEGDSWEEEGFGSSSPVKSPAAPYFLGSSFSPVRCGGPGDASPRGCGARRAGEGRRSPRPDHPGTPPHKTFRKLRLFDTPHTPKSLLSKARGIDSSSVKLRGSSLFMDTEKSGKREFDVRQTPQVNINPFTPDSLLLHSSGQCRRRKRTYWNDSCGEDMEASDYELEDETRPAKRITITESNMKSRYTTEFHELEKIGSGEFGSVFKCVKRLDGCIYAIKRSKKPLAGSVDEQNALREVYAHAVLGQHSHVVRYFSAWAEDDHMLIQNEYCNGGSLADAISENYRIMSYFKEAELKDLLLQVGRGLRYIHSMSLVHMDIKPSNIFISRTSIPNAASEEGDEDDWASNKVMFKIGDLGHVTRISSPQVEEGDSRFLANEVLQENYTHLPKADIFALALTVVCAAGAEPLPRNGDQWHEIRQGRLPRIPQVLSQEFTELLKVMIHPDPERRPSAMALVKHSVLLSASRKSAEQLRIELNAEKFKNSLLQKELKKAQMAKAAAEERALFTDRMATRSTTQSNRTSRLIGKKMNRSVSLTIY
T5 sequence (Q96SW2 whole entry): as the sequence (Q96SW2 whole entry) above
T5 sequence (Q16531 whole entry partner): as the sequence (Q16531 whole entry partner) above

[6] = tested on: GSPT1; assay: as above; assay type: cell-based, Human; settings: Western blot, 24 hours of compound treatment, compounds tested at 50 nM and 500 nM (concentration for the table not stated)
[7] = target: T6, human Cereblon WT GST-tagged protein (Homo sapiens, UniProt Q96SW2); assay: CRBN-binding affinity, HTRF (CEREBLON BINDING kit); settings: for inhibition at 0.5 µM: read-out: Inhibition Rate at 0.5 µM (%); for inhibition at 2 µM: read-out: Inhibition Rate at 2 µM (%)
T6 construct: purchased CISBIO 64BDCRBNPEH
T6 sequence (Q96SW2 whole entry): as the sequence (Q96SW2 whole entry) above

T1 sequence (P48729 whole entry): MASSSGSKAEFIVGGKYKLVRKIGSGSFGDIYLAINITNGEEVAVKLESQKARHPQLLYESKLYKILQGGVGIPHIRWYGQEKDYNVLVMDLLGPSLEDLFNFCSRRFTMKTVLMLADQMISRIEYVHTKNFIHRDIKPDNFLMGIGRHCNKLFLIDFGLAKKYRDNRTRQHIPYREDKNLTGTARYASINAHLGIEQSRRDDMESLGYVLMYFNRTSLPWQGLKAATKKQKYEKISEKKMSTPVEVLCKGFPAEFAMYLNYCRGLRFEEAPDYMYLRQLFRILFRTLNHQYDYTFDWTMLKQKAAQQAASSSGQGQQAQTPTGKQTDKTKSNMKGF
T1 sequence (Q96SW2 whole entry): as the sequence (Q96SW2 whole entry) above
T1 sequence (Q16531 whole entry partner): as the sequence (Q16531 whole entry partner) above

| SMILES | inhibition at 0.5 µM [7] [%] | inhibition at 2 µM [7] [%] | CK1α substrate protein remaining % [1] | IKZF 1 substrate protein remaining % [2] | IKZF2 substrate protein remaining % [3] | IKZF3 substrate protein remaining % [4] | Wee1 substrate protein remaining % [5] | GSPT1 substrate protein remaining % [6] |
| --- | --- | --- | --- | --- | --- | --- | --- | --- |
| O=C1CCC(N2Cc3c(CN4CC=C(c5cccc6cnccc56)CC4)cccc3C2=S)C(=O)N1 (stereo not drawn) [GT-08634, 3-(4-((4-(isoquinolin-5-yl)-3,6-dihydropyridin-1(2H)-yl)methyl)-1-thioxoisoindolin-2-yl)piperidine-2,6-dione] | 60 to 80 | 80 to 100 | B (80%< substrate protein remaining %≤ 100%) | B (80%< substrate protein remaining %≤ 100%) | B (80%< substrate protein remaining %≤ 100%) | B (80%< substrate protein remaining %≤ 100%) | A (0% ≤ substrate protein remaining % ≤ 80%) | B (80%< substrate protein remaining %≤ 100%) |
| O=C1CCC(N2Cc3c(CN4CC(N5CCc6cc(F)ccc65)C4)cccc3C2=S)C(=O)N1 (stereo not drawn) [GT-08635, 3-(4-((3-(5-fluoroindolin-1-yl)azetidin-1-yl)methyl)-1-thioxoisoindolin-2-yl)piperidine-2,6-dione] | 80 to 100 | 80 to 100 | B (80%< substrate protein remaining %≤ 100%) | B (80%< substrate protein remaining %≤ 100%) | B (80%< substrate protein remaining %≤ 100%) | B (80%< substrate protein remaining %≤ 100%) | A (0% ≤ substrate protein remaining % ≤ 80%) | B (80%< substrate protein remaining %≤ 100%) |
| O=C1CCC(N2Cc3c(CN4CCN(c5ccccn5)CC4)cccc3C2=S)C(=O)N1 (stereo not drawn) [GT-08691, 3-(4-((4-(pyridin-2-yl)piperazin-1-yl)methyl)-1-thioxoisoindolin-2-yl)piperidine-2,6-dione] | 60 to 80 | 80 to 100 | B (80%< substrate protein remaining %≤ 100%) | B (80%< substrate protein remaining %≤ 100%) | B (80%< substrate protein remaining %≤ 100%) | B (80%< substrate protein remaining %≤ 100%) | A (0% ≤ substrate protein remaining % ≤ 80%) | B (80%< substrate protein remaining %≤ 100%) |
| Cc1cccc(N2CCN(Cc3cccc4c3CN(C3CCC(=O)NC3=O)C4=S)CC2)n1 (stereo not drawn) [GT-08692, 3-(4-((4-(6-methylpyridin-2-yl)piperazin-1-yl)methyl)-1-thioxoisoindolin-2-yl)piperidine-2,6-dione] | 53 to 60 | 80 to 100 | B (80%< substrate protein remaining %≤ 100%) | B (80%< substrate protein remaining %≤ 100%) | B (80%< substrate protein remaining %≤ 100%) | B (80%< substrate protein remaining %≤ 100%) | A (0% ≤ substrate protein remaining % ≤ 80%) | B (80%< substrate protein remaining %≤ 100%) |
| O=C1CCC(N2Cc3c(CN4CCN(c5cccc(Cl)n5)CC4)cccc3C2=S)C(=O)N1 (stereo not drawn) [GT-08693, 3-(4-((4-(6-chloropyridin-2-yl)piperazin-1-yl)methyl)-1-thioxoisoindolin-2-yl)piperidine-2,6-dione] | 60 to 80 | 80 to 100 | B (80%< substrate protein remaining %≤ 100%) | B (80%< substrate protein remaining %≤ 100%) | B (80%< substrate protein remaining %≤ 100%) | B (80%< substrate protein remaining %≤ 100%) | A (0% ≤ substrate protein remaining % ≤ 80%) | B (80%< substrate protein remaining %≤ 100%) |

The next lines start with results.

| inhibition at 0.5 µM [7] [%] | inhibition at 2 µM [7] [%] | SMILES | CK1α substrate protein remaining % [1] | IKZF 1 substrate protein remaining % [2] | IKZF2 substrate protein remaining % [3] | IKZF3 substrate protein remaining % [4] | Wee1 substrate protein remaining % [5] | GSPT1 substrate protein remaining % [6] |
| --- | --- | --- | --- | --- | --- | --- | --- | --- |
| 40 to 53 | 60 to 80 | O=C1CCC(N2Cc3c(CN4CCN(c5ccc(Cl)cn5)CC4)cccc3C2=S)C(=O)N1 (stereo not drawn) [GT-08694, 3-(4-((4-(5-chloropyridin-2-yl)piperazin-1-yl)methyl)-1-thioxoisoindolin-2-yl)piperidine-2,6-dione] | B (80%< substrate protein remaining %≤ 100%) | B (80%< substrate protein remaining %≤ 100%) | B (80%< substrate protein remaining %≤ 100%) | B (80%< substrate protein remaining %≤ 100%) | A (0% ≤ substrate protein remaining % ≤ 80%) | A (0% ≤ substrate protein remaining % ≤ 80%) |
| 60 to 80 | 80 to 100 | O=C1CCC(N2Cc3c(CN4CCN(c5ncccc5Cl)CC4)cccc3C2=S)C(=O)N1 (stereo not drawn) [GT-08696, 3-(4-((4-(3-chloropyridin-2-yl)piperazin-1-yl)methyl)-1-thioxoisoindolin-2-yl)piperidine-2,6-dione] | B (80%< substrate protein remaining %≤ 100%) | B (80%< substrate protein remaining %≤ 100%) | B (80%< substrate protein remaining %≤ 100%) | B (80%< substrate protein remaining %≤ 100%) | A (0% ≤ substrate protein remaining % ≤ 80%) | B (80%< substrate protein remaining %≤ 100%) |
| 60 to 80 | 80 to 100 | O=C1CCC(N2Cc3c(CN4CCN(c5ncccc5F)CC4)cccc3C2=S)C(=O)N1 (stereo not drawn) [GT-08697, 3-(4-((4-(3-fluoropyridin-2-yl)piperazin-1-yl)methyl)-1-thioxoisoindolin-2-yl)piperidine-2,6-dione] | B (80%< substrate protein remaining %≤ 100%) | B (80%< substrate protein remaining %≤ 100%) | B (80%< substrate protein remaining %≤ 100%) | B (80%< substrate protein remaining %≤ 100%) | A (0% ≤ substrate protein remaining % ≤ 80%) | B (80%< substrate protein remaining %≤ 100%) |
| 60 to 80 | 80 to 100 | O=C1CCC(N2Cc3c(CN4CCN(c5cccc(F)n5)CC4)cccc3C2=S)C(=O)N1 (stereo not drawn) [GT-08698, 3-(4-((4-(6-fluoropyridin-2-yl)piperazin-1-yl)methyl)-1-thioxoisoindolin-2-yl)piperidine-2,6-dione] | B (80%< substrate protein remaining %≤ 100%) | B (80%< substrate protein remaining %≤ 100%) | B (80%< substrate protein remaining %≤ 100%) | B (80%< substrate protein remaining %≤ 100%) | A (0% ≤ substrate protein remaining % ≤ 80%) | A (0% ≤ substrate protein remaining % ≤ 80%) |
| 53 to 60 | 80 to 100 | O=C1CCC(N2Cc3c(CN4CCN(c5ccc(F)cn5)CC4)cccc3C2=S)C(=O)N1 (stereo not drawn) [GT-08699, 3-(4-((4-(5-fluoropyridin-2-yl)piperazin-1-yl)methyl)-1-thioxoisoindolin-2-yl)piperidine-2,6-dione] | B (80%< substrate protein remaining %≤ 100%) | B (80%< substrate protein remaining %≤ 100%) | B (80%< substrate protein remaining %≤ 100%) | B (80%< substrate protein remaining %≤ 100%) | A (0% ≤ substrate protein remaining % ≤ 80%) | B (80%< substrate protein remaining %≤ 100%) |
| 40 to 53 | 80 to 100 | O=C1CCC(N2Cc3c(CN4CCN(c5cccc(C(F)(F)F)n5)CC4)cccc3C2=S)C(=O)N1 (stereo not drawn) [GT-08701, 3-(1-thioxo-4-((4-(6-(trifluoromethyl)pyridin-2-yl)piperazin-1-yl)methyl)isoindolin-2-yl)piperidine-2,6-dione] | B (80%< substrate protein remaining %≤ 100%) | B (80%< substrate protein remaining %≤ 100%) | B (80%< substrate protein remaining %≤ 100%) | B (80%< substrate protein remaining %≤ 100%) | A (0% ≤ substrate protein remaining % ≤ 80%) | B (80%< substrate protein remaining %≤ 100%) |
| 53 to 60 | 60 to 80 | O=C1CCC(N2Cc3c(CN4CCN(c5ncc(Cl)cc5Cl)CC4)cccc3C2=S)C(=O)N1 (stereo not drawn) [GT-08703, 3-(4-((4-(3,5-dichloropyridin-2-yl)piperazin-1-yl)methyl)-1-thioxoisoindolin-2-yl)piperidine-2,6-dione] | B (80%< substrate protein remaining %≤ 100%) | B (80%< substrate protein remaining %≤ 100%) | B (80%< substrate protein remaining %≤ 100%) | B (80%< substrate protein remaining %≤ 100%) | A (0% ≤ substrate protein remaining % ≤ 80%) | B (80%< substrate protein remaining %≤ 100%) |
